Values after ≈ are worked out from the molar mass of the structure shown. Read-outs that look alike come from different tables or passages of the source.
Columns and labels:
Format in all cases: cell-based
[1] = system: Escherichia coli MC4100 harboring the IMP4213 (E. coli IMP); experiment: microbe, parasite or virus in culture; conditions: Escherichia coli, 22 h
Outline: (§1)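 CLSI broth microdilution in cation-adjusted Mueller Hinton Broth with 0.002% Tween-80; inoculum final OD600 0.0005, 22 hours at 35° C. Ten 2-fold dilutions starting at 4 μg/mL (protocol 2) or 0.5 μg/mL (protocol 3).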

[2] = system: Methicillin Resistant Staphylococcus aureus strain USA 300, NRS384; experiment: Minimum inhibitory concentration, broth micro-dilution (CLSI), S. aureus; conditions: Staphylococcus aureus, MRSA / NRS 384 / USA300, 22 h
Outline: as §1

[3] = system: Escherichia coli ATCC 25922; experiment: Minimum inhibitory concentration, broth micro-dilution (CLSI), E. coli; conditions: Escherichia coli, ATCC25922, 22 h
[4] = read-out: MIC (μg/mL) E. coli IMP, E. coli MC4100 IMP4213, increased outer-membrane permeability, 35° C., 22 hours
[5] = read-out: MIC (μg/mL) S. aureus, MRSA USA 300 NRS384, 35° C., 22 hours
[6] = read-out: MIC (μg/mL) E. coli, E. coli ATCC 25922, 35° C., 22 hours
[7] = MRSA USA 300 NRS384, 35° C., 22 hours, read-out: MIC (μg/mL) S. aureus
[8] = E. coli ATCC 25922, 35° C., 22 hours, read-out: MIC (μg/mL) E. coli

For C[C@@H]1NC(=O)[C@@H](N(C)C(=O)[C@H](CCCCN)NC(=O)c2ccc(-c3ccc(Cl)cc3)cc2)c2ccc(O)c(c2)-c2cc(ccc2O)C[C@@H](C(=O)NCC#N)NC1=O [Compound 416], the MIC [1, 4] was 2 µg/mL (≈ 2.52 µM), the MIC [2, 5] was 0.5 µg/mL (≈ 0.629 µM) and the MIC [3, 6] was greater than 64 µg/mL.

C[C@@H]1NC(=O)[C@@H](N(C)C(=O)[C@H](CCCCN)NC(=O)c2ccc(-c3ccc(Cl)cc3)cc2)c2ccc(O)c(c2)-c2cc(ccc2O)C[C@@H](C(=O)N[C@@H](C)C#N)NC1=O [Compound 417] gave an MIC [1, 4] of 4 µg/mL (≈ 4.95 µM), an MIC [2, 7] of 13 µg/mL (≈ 16.1 µM) and an MIC [3, 8] greater than 64 µg/mL.

C[C@@H]1NC(=O)[C@@H](N(C)C(=O)[C@H](CCCCN)NC(=O)c2ccc(-c3ccc(Cl)cc3)cc2)c2ccc(O)c(c2)-c2cc(ccc2O)C[C@@H](C(=O)N[C@H](C#N)CO)NC1=O [Compound 418] gave an MIC [1, 4] greater than 4 µg/mL, an MIC [2, 7] of 4 µg/mL (≈ 4.85 µM) and an MIC [3, 8] greater than 64 µg/mL.

For CCCCCCCCCCCC(=O)N[C@@H](CO)C(=O)N(C)[C@@H]1C(=O)N[C@@H](C)C(=O)N[C@H](C(=O)N[C@H](C#N)CC)Cc2ccc(OCCN)c(c2)-c2cc1ccc2OCCN [Compound 419], the MIC ([1]; read-out: MIC (μg/mL) E. coli IMP) was 0.75 µg/mL (≈ 0.898 µM), the MIC ([2]; read-out: MIC (μg/mL) S. aureus) was 4 µg/mL (≈ 4.79 µM) and the MIC ([3]; read-out: MIC (μg/mL) E. coli) was 32 µg/mL (≈ 38.3 µM).

Cc1cc(C(C)C)ccc1C(=O)N[C@@H](CCN)C(=O)N(C)[C@@H]1C(=O)N[C@@H](C)C(=O)N[C@H](C(=O)NCC#N)Cc2ccc(OCCN)c(c2)-c2cc1ccc2OCCN [Compound 433] gave an MIC [1, 4] of 0.094 µg/mL (≈ 0.118 µM), an MIC [2, 5] of 0.5 µg/mL (≈ 0.627 µM) and an MIC [3, 6] of 4 µg/mL (≈ 5.01 µM).

Cc1cc(C2(C)CC2)ccc1C(=O)N[C@@H](CCN)C(=O)N(C)[C@@H]1C(=O)N[C@@H](C)C(=O)N[C@H](C(=O)NCC#N)Cc2ccc(OCCN)c(c2)-c2cc1ccc2OCCN [Compound 435] gave an MIC [1, 4] of 0.063 µg/mL (≈ 0.0778 µM), an MIC [2, 7] of 0.5 µg/mL (≈ 0.617 µM) and an MIC [3, 8] of 4 µg/mL (≈ 4.94 µM).

Compound Cc1cc(C2CC(c3ccccc3)C2)ccc1C(=O)N[C@@H](CCN)C(=O)N(C)[C@@H]1C(=O)N[C@@H](C)C(=O)N[C@H](C(=O)NCC#N)Cc2ccc(OCCN)c(c2)-c2cc1ccc2OCCN (stereo partly drawn) [Compound 441] has an MIC [1, 4] of 0.016 µg/mL (≈ 0.0181 µM), an MIC [2, 7] of 0.063 µg/mL (≈ 0.0711 µM) and an MIC [3, 8] of 1 µg/mL (≈ 1.13 µM).

Work on Cc1c(C(=O)N[C@@H](CCN)C(=O)N(C)[C@@H]2C(=O)N[C@@H](C)C(=O)N[C@H](C(=O)NCC#N)Cc3ccc(OCCN)c(c3)-c3cc2ccc3OCCN)cnn1-c1ccc(CC(C)C)cc1 [Compound 444] yielded an MIC [1, 4] of 0.031 µg/mL (≈ 0.0353 µM), an MIC [2, 7] of 0.094 µg/mL (≈ 0.107 µM) and an MIC [3, 8] of 3 µg/mL (≈ 3.42 µM).

Compound Cc1cc(-n2cc(C#CC(C)C)cn2)ccc1C(=O)N[C@@H](CCN)C(=O)N(C)[C@@H]1C(=O)N[C@@H](C)C(=O)N[C@H](C(=O)NCC#N)Cc2ccc(OCCN)c(c2)-c2cc1ccc2OCCN [Compound 446] has an MIC [1, 4] of 0.012 µg/mL (≈ 0.0135 µM), an MIC [2, 7] of 0.063 µg/mL (≈ 0.0709 µM) and an MIC [3, 8] of 0.5 µg/mL (≈ 0.563 µM).

Work on CCCCCCCCc1ccc(C(=O)N[C@@H](CCN)C(=O)N(C)[C@@H]2C(=O)N[C@@H](C)C(=O)N[C@H](C(=O)NCC#N)Cc3ccc(OCCN)c(c3)-c3cc2ccc3OCCN)c(CCC(=O)O)c1 [Compound 447] yielded an MIC [1, 4] of 0.012 µg/mL (≈ 0.013 µM), an MIC [2, 7] of 0.13 µg/mL (≈ 0.14 µM) and an MIC [3, 8] of 2 µg/mL (≈ 2.16 µM).

Work on CCCCCCCCc1ccc(C(=O)N[C@@H](CCN)C(=O)N(C)[C@@H]2C(=O)N[C@@H](C)C(=O)N[C@H](C(=O)NCC#N)Cc3ccc(OCCN)c(c3)-c3cc2ccc3OCCN)c(CCC#N)c1 [Compound 449] yielded an MIC [1, 4] of 0.063 µg/mL (≈ 0.0694 µM), an MIC [2, 5] of 0.094 µg/mL (≈ 0.104 µM) and an MIC [3, 6] of 1 µg/mL (≈ 1.1 µM).

CCCCCCCCc1ccc(C(=O)N[C@@H](CCN)C(=O)N(C)[C@@H]2C(=O)N[C@@H](C)C(=O)N[C@H](C(=O)NCC#N)Cc3ccc(OCCN)c(c3)-c3cc2ccc3OCCN)c(CCC(N)=O)c1 [Compound 451] showed an MIC [1, 4] of 0.016 µg/mL (≈ 0.0173 µM), an MIC [2, 7] of 0.023 µg/mL (≈ 0.0249 µM) and an MIC [3, 8] of 2 µg/mL (≈ 2.16 µM).

In the case of CCCCCCCCCCN(CCN)CCC(=O)N(C)[C@@H]1C(=O)N[C@@H](C)C(=O)N[C@H](C(=O)NCC#N)Cc2ccc(OCCN)c(c2)-c2cc1ccc2OCCN [Compound 452], the MIC [1, 4] is reported as 2 µg/mL (≈ 2.53 µM), the MIC [2, 5] is reported as 0.19 µg/mL (≈ 0.24 µM) and the MIC [3, 6] is reported as 64 µg/mL (≈ 80.8 µM).

Compound CCCCCCCCCCCC(=O)N[C@@H](CCC#N)C(=O)N(C)[C@@H]1C(=O)N[C@@H](C)C(=O)N[C@H](C(=O)NCC#N)Cc2ccc(OCCN)c(c2)-c2cc1ccc2OCCN [Compound 455] has an MIC [1, 4] of 0.5 µg/mL (≈ 0.602 µM), an MIC [2, 7] of 0.5 µg/mL (≈ 0.602 µM) and an MIC [3, 8] of 32 µg/mL (≈ 38.6 µM).

CCCCCCCCCCCCCC(=O)N[C@@H](CCN)C(=O)N(C)[C@@H]1C(=O)N[C@@H](C)C(=O)N[C@H](C(=O)NCC#N)Cc2ccc(OCCO)c(c2)-c2cc1ccc2OCCO [Compound 458] gave an MIC [1, 4] of 0.0078 µg/mL (≈ 0.00918 µM), an MIC [2, 7] of 0.25 µg/mL (≈ 0.294 µM) and an MIC [3, 8] of 16 µg/mL (≈ 18.8 µM).

With CCCCCCc1ccc(C(=O)N[C@@H](CCN)C(=O)N(C)[C@@H]2C(=O)N[C@@H](C)C(=O)N[C@H](C(=O)NCC#N)Cc3ccc(O)c(c3)-c3cc2ccc3O)c(C)c1 [Compound 466] the MIC [1, 4] was 0.063 µg/mL (≈ 0.0836 µM), the MIC [2, 7] was 0.25 µg/mL (≈ 0.332 µM) and the MIC [3, 8] was 64 µg/mL (≈ 84.9 µM).

CCCCCCc1ccc(C(=O)N[C@@H](CCNC=N)C(=O)N(C)[C@@H]2C(=O)N[C@@H](C)C(=O)N[C@H](C(=O)NCC#N)Cc3ccc(O)c(c3)-c3cc2ccc3O)c(C)c1 [Compound 467] showed an MIC [1, 4] of 1 µg/mL (≈ 1.28 µM), an MIC [2, 5] of 1 µg/mL (≈ 1.28 µM) and an MIC [3, 6] greater than 64 µg/mL.

In the case of CCCCCCCCCCCCCC(=O)N(C)[C@@H]1C(=O)N[C@@H](C)C(=O)N[C@H](C(=O)N[C@@H](C)C#N)Cc2ccc(OCCN)c(c2)-c2cc1ccc2OCCN [Compound 474], the MIC [1, 4] is reported as 0.19 µg/mL (≈ 0.249 µM), the MIC [2, 7] is reported as 2 µg/mL (≈ 2.62 µM) and the MIC [3, 8] is reported as 4 µg/mL (≈ 5.25 µM).

CCCCCCc1ccc(C(=O)N[C@@H](Cc2ccncc2)C(=O)N(C)[C@@H]2C(=O)N[C@@H](C)C(=O)N[C@H](C(=O)NCC#N)Cc3ccc(OCCN)c(c3)-c3cc2ccc3OCCN)c(C)c1 [Compound 479] gave an MIC [1, 4] of 0.5 µg/mL (≈ 0.563 µM), an MIC [2, 7] of 0.25 µg/mL (≈ 0.282 µM) and an MIC [3, 8] of 32 µg/mL (≈ 36 µM).

CCCCCCc1ccc(C(=O)N[C@@H](CCNC(=N)N)C(=O)N(C)[C@@H]2C(=O)N[C@@H](C)C(=O)N[C@H](C(=O)NCC#N)Cc3ccc(OCCN)c(c3)-c3cc2ccc3OCCN)c(C)c1 [Compound 485] gave an MIC [1, 4] of 0.031 µg/mL (≈ 0.0351 µM), an MIC [2, 7] of 0.063 µg/mL (≈ 0.0714 µM) and an MIC [3, 8] of 2 µg/mL (≈ 2.27 µM).

CCCCCCCCc1ccc2c(=O)n([C@@H](CCN)C(=O)N(C)[C@@H]3C(=O)N[C@@H](C)C(=O)N[C@H](C(=O)NCC#N)Cc4ccc(OCCN)c(c4)-c4cc3ccc4OCCN)cnc2c1 [Compound 486] showed an MIC [1, 4] of 0.13 µg/mL (≈ 0.148 µM), an MIC [2, 5] of 0.094 µg/mL (≈ 0.107 µM) and an MIC [3, 6] of 3 µg/mL (≈ 3.41 µM).

Compound CCCCCCCCc1ccc2c(=O)n([C@@H](CCN)C(=O)N(C)[C@@H]3C(=O)N[C@@H](C)C(=O)N[C@H](C(=O)NCC#N)Cc4ccc(OCCN)c(c4)-c4cc3ccc4OCCN)c(C)nc2c1 [Compound 487] has an MIC [1, 4] of 0.25 µg/mL (≈ 0.28 µM), an MIC [2, 7] of 0.5 µg/mL (≈ 0.56 µM) and an MIC [3, 8] of 8 µg/mL (≈ 8.96 µM).

Work on CCCCCCCCc1ccc2c(c1)CN([C@@H](CCN)C(=O)N(C)[C@@H]1C(=O)N[C@@H](C)C(=O)N[C@H](C(=O)NCC#N)Cc3ccc(OCCN)c(c3)-c3cc1ccc3OCCN)C2=O [Compound 488] yielded an MIC [1, 4] of 0.13 µg/mL (≈ 0.15 µM), an MIC [2, 5] of 0.094 µg/mL (≈ 0.109 µM) and an MIC [3, 6] of 4 µg/mL (≈ 4.62 µM).

Compound CCCCCCCCc1ccc2c(c1)C(C)N([C@@H](CCN)C(=O)N(C)[C@@H]1C(=O)N[C@@H](C)C(=O)N[C@H](C(=O)NCC#N)Cc3ccc(OCCN)c(c3)-c3cc1ccc3OCCN)C2=O (stereo partly drawn) [Compound 489] has an MIC [1, 4] of 0.25 µg/mL (≈ 0.284 µM), an MIC [2, 7] of 0.19 µg/mL (≈ 0.216 µM) and an MIC [3, 8] of 8 µg/mL (≈ 9.09 µM).

Compound C[C@@H]1NC(=O)[C@@H](N(C)C(=O)[C@H](CCN)NC(=O)CCCc2ccc(F)cc2)c2ccc(OCCN)c(c2)-c2cc(ccc2OCCN)C[C@@H](C(=O)NCC#N)NC1=O [Compound 493] has an MIC [1, 4] of 2 µg/mL (≈ 2.49 µM), an MIC [2, 7] of 3 µg/mL (≈ 3.74 µM) and an MIC [3, 8] greater than 64 µg/mL.

CCCCCCc1ccc(C(=O)N[C@@H]2CN[C@H](C(=O)N(C)[C@@H]3C(=O)N[C@@H](C)C(=O)N[C@H](C(=O)NCC#N)Cc4ccc(OCCN)c(c4)-c4cc3ccc4OCCN)C2)c(C)c1 [Compound 498] gave an MIC [1, 4] of 1 µg/mL (≈ 1.17 µM), an MIC [2, 7] of 0.5 µg/mL (≈ 0.587 µM) and an MIC [3, 8] of 16 µg/mL (≈ 18.8 µM).
